{
  "source": "patent US10302660B2",
  "about": "“Methods useful for vitamin D deficiency and related disorders” (OPKO RENAL, LLC, priority 2008, dated 2019)",
  "molecules": {"B1": {"name": "FGF23: fibroblast growth factor-23 (protein, UniProt Q9GZV9 25-251, looked up)", "Fibroblast growth factor 23": "YPNASPLLGSSWGGLIHLYTATARNSYHLQIHKNGHVDGAPHQTIYSALMIRSEDAGFVVITGVMSRRYLCMDFRGNIFGSHYFDPENCRFQHQTLENGYDVYHSPQYHFLVSLGRAKRAFLPGMNPPPYSQFLSRRNEIPLIHFNTPIPRRHTRSAEDDSERDPLNVLKPRARMTPAPASCSQELPSAEDNSPMASDPLGVVRGGRVNTHAGGTGPEGCRPFAKFI"}},
  "key": {"[1]": {"tested_on": "parathyroid hormone (PTH)", "assay": "Serum intact PTH (iPTH Elisa Kit) in adenine-fed rats treated with vitamin D compounds", "format": "in vivo", "settings": "treated for one week, versus control-fed animals (FIG. 2)", "excerpt": "To obtain an animal model of vitamin D deficiency, rats were fed an adenine-rich diet."}, "[2]": {"assay": "Vitamin D hormone status: 1,25-(OH)2-D3 level by mass spectrometry in adenine-fed rats", "format": "in vivo", "settings": "versus control-fed animals (FIG. 3)"}, "CYP24 [3]": {"tested_on": "CYP24", "assay": "Kidney CYP24 mRNA (real-time PCR) in vitamin D deficient rats treated with 25-hydroxyvitamin D3", "format": "in vivo, Sprague Dawley rats", "settings": "vitamin D deficient animals after treatment; 0.6, 3 or 18 mcg/kg daily for two weeks (FIG. 17)", "protocol": "Sprague Dawley rats were fed either a normal diet or a vitamin D deficient diet for a period of four weeks. Animals were then injected daily for two weeks with either 25-hydroxyvitamin D3 at 0.6, 3, or 18 mcg/kg or vehicle as per the axis label in FIG. 17. Kidneys were collected 24 hours after the last injection and CYP24 mRNA levels were measured by real-time PCR."}, "CYP24 [4]": {"tested_on": "CYP24", "assay": "Kidney CYP24 mRNA (real-time PCR) in uremic (adenine) vitamin D deficient rats treated with 25-hydroxyvitamin D3", "format": "in vivo, Sprague Dawley rats", "settings": "uremic vitamin D deficient rats after treatment; 0.6 or 18 mcg/kg daily for two weeks (FIG. 18)", "protocol": "Sprague Dawley rats were fed either a normal diet (Adenine Vehicle group) or a vitamin D deficient diet (Vit. D def./Adenine Vehicle group) for a period of four weeks. Following this treatment, animals were orally administered, daily for two weeks, 100 mg of adenine. Animals were then injected daily for another two weeks with either 25-hydroxyvitamin D3 at 0.6 or 18 mcg/kg or vehicle as per the axis label in FIG. 18. Kidneys were collected 24 hours after the last injection and CYP24 mRNA levels were measured by real-time PCR."}, "[5]": {"assay": "1,25-dihydroxyvitamin D3 levels in vitamin D deficient uremic versus vitamin D deficient rats dosed with 25-hydroxyvitamin D", "format": "in vivo", "settings": "after dosing for two weeks; vitamin D deficient uremic rats compared to vitamin D deficient animals (FIG. 19)"}, "CYP24 [6]": {"tested_on": "CYP24", "assay": "CYP24 induction (real-time PCR) in HEK cells with 1,25-dihydroxyvitamin D3 alone or with CYP24 inhibitor", "format": "cell-based", "settings": "10 nM inhibitor with 10 nM 1,25-dihydroxyvitamin D3, 6, 24, 48 and 72 hours (FIG. 14)", "protocol": "HEK cells were seeded at 25,000 cells per well (24-well plate) and incubated with 1,25-dihydroxyvitamin D3 (10 nM) alone or with a CYP24 inhibitor (MK-24(S)—S(O)(NH)-Ph-1, see U.S. Pat. No. 7,101,865, compound I(a)) (10 nM) for 6, 24, 48 and 72 hours. Cells were collected and RNA was prepared using TRIZOL® reagent. CYP24 was quantified using real-time PCR."}, "HEK cells": {"tested_on": "HEK cells", "assay": "[3H]-thymidine incorporation in HEK cells, 1,25-dihydroxyvitamin D3 with CYP24 inhibitor", "format": "cell-based", "settings": "cultured HEK cells, inhibitor at 0, 1, 10 and 50 nM (FIG. 15)", "protocol": "HEK cells were transferred into 96-well plates at 2000 cells/well density. After 2 days of growth in 96-well plates the cells were treated with 1,25-dihydroxyvitamin D3 at the final concentrations 10^−6-10^−11 M in combination with the MK-24(S)—S(O)(NH)-Ph-1 compound with the varied final concentration of 0, 1, 10 and 50 nM. After overnight treatment [^3H]-thymidine was added to cells, […]/well in KGM media for 16 h. The radioactivity incorporation was counted using a scintillation counter after the addition of […] of scintillation fluid. The data were represented as an incorporation of thymidine in cpm depending on 1,25-dihydroxyvitamin D3 concentration. Each data point represents at least 4 independent trials."}, "CYP24 [7]": {"tested_on": "CYP24", "assay": "CYP24 gene expression by real-time PCR in normal and adenine-induced uremic rats dosed with 1,25-dihydroxyvitamin D3", "format": "in vivo, Sprague-Dawley rats", "protocol": "Sprague-Dawley rats were treated i.v. daily with vehicle or 0.5 mcg/kg 1,25-dihydroxyvitamin D3 for 1 week. Organs were collected 24 hours after the last dosing. CYP24 gene expression was determined by real-time PCR.\nSprague-Dawley rats were fed a standard diet (normal) or a uremia-inducing diet containing 0.75% adenine (uremic) for 4 weeks. Animals were then dosed i.v. daily with vehicle or 0.5 mcg/kg 1,25-dihydroxyvitamin D3 for 7 days. Organs were collected 24 hours after the final dosing. CYP24 gene expression was determined by real-time PCR and normalized to GAPDH levels. Relative expression values are normalized to the vehicle-treated group (relative expression=1).\n“*” denotes a significant difference in CYP24 expression between vehicle and 1,25-dihydroxyvitamin D3 treatment in normal and uremic rats. “**” represents a significant difference between vehicle-treated normal and uremic rats. “ ? ” denotes significant difference in CYP24 induction levels between normal and uremic rats treated with 1,25-dihydroxyvitamin D3. Significance was set at a p value cutoff of <0.05. Data are presented as mean±SEM. Numerals above each bar signifies relative fold induction to normal-vehicle.\nCYP24 and CYP27B1 expression was measured using the same protocol outlined above in Example 6 with respect to FIG. 11. Serum levels of 25(OH)D3 and 1,25-dihydroxyvitamin D3 were measured by LC-MS. Serum PTH was measured by ELISA IMMUTOPICS (San Clemente, Calif., USA) according to manufacturer's instructions. Briefly, serum samples were spiked with [26,27-^2H6] 25(OH)D3 or [25,26-^2H6] 1,25-dihydroxyvitamin D3 and dissolved in acetonitrile to serve as an internal standard. 1,25-dihydroxyvitamin D3 or 25(OH)D3 and internal standards were extracted from serum using Accubond II ODS-C18 100 mg, 1 mL SPE cartridges (Agilent Technologies). The collected fractions were evaporated to dryness under a steady stream of nitrogen gas and the residues reconstituted in 50 μL of methanol/H2O (80/20; v/v) and analyzed using LC-MS/MS (Waters Alliance HPLC—Waters Quattro Ultima mass spectrometer). […]"}, "[8]": {"assay": "Serum 25(OH)D3 by LC-MS in uremic rats treated with 1,25-dihydroxyvitamin D3", "format": "in vivo, Sprague-Dawley rats", "settings": "0.5 mcg/kg i.v. daily for 7 days (FIG. 12)", "protocol": "(§1) CYP24 and CYP27B1 expression was measured using the same protocol outlined above in Example 6 with respect to FIG. 11. Serum levels of 25(OH)D3 and 1,25-dihydroxyvitamin D3 were measured by LC-MS. Serum PTH was measured by ELISA IMMUTOPICS (San Clemente, Calif., USA) according to manufacturer's instructions. Briefly, serum samples were spiked with [26,27-^2H6] 25(OH)D3 or [25,26-^2H6] 1,25-dihydroxyvitamin D3 and dissolved in acetonitrile to serve as an internal standard. 1,25-dihydroxyvitamin D3 or 25(OH)D3 and internal standards were extracted from serum using Accubond II ODS-C18 100 mg, 1 mL SPE cartridges (Agilent Technologies). The collected fractions were evaporated to dryness under a steady stream of nitrogen gas and the residues reconstituted in 50 μL of methanol/H2O (80/20; v/v) and analyzed using LC-MS/MS (Waters Alliance HPLC—Waters Quattro Ultima mass spectrometer). Relative expression values are normalized to the vehicle-treated group (relative expression=1)."}, "PTH": {"tested_on": "PTH", "assay": "Serum PTH by ELISA in uremic rats treated with 1,25-dihydroxyvitamin D3", "format": "in vivo, Sprague-Dawley rats", "settings": "0.5 mcg/kg i.v. daily for 7 days (FIG. 12)", "protocol": "as §1"}, "CYP24 [9]": {"tested_on": "CYP24", "assay": "CYP24 RNA expression in HPK1a-ras cells, 1,25-dihydroxyvitamin D3 with or without FGF23", "format": "cell-based", "settings": "100 ng/mL FGF23 with 0, 1, 10, 100 nM calcitriol, after 8 hours (FIG. 16)", "protocol": "HPK1a-ras cells were treated with 0, 1, 10, and 100 nM of 1,25-dihydroxyvitamin D3 (calcitriol), with or without 100 ng/mL of FGF23, and CYP24 RNA expression was measured after 8 hours."}},
  "note": "“Also recorded” adds a separate entry of the source.",
  "data": [
    {"molecule": "C=C1CC[C@H](O)C/C1=C/C=C1\\CCC[C@]2(C)[C@@H]([C@H](C)CCCC(C)(C)O)CC[C@@H]12", "note": "[25-OH-D3, 25-hydroxyvitamin D3]", "values": [
      {"measurement": "iPTH level", "setting": "[1]", "value": "restored to a level similar to control-fed animals"},
      {"measurement": "1,25-(OH)2-D3 levels (vitamin D hormone status)", "setting": "[2]", "value": "did not significantly affect"},
      {"measurement": "CYP24 levels", "setting": "CYP24 [3]", "value": "increase to normal or higher levels"},
      {"measurement": "CYP24 levels", "setting": "CYP24 [4]", "value": "do not increase"},
      {"measurement": "levels of 1,25-dihydroxyvitamin D3", "setting": "[5]", "value": "lower"}
    ]},
    {"molecule": "C=C1/C(=C\\C=C2/CCC[C@]3(C)[C@@H]([C@H](C)/C=C/[C@H](C)C(C)(C)O)CC[C@@H]23)C[C@@H](O)C[C@@H]1O", "note": "[1,25-(OH)2-D2, 1,25-dihydroxyvitamin D2]", "values": [
      {"measurement": "iPTH level", "setting": "[1]", "value": "restored to a level similar to control-fed animals"},
      {"measurement": "1,25-(OH)2-D3 levels (vitamin D hormone status)", "setting": "[2]", "value": "did not significantly affect"}
    ]},
    {"molecule": "C=C1/C(=C\\C=C2/CCC[C@]3(C)[C@@H]([C@H](C)CCC[S@](=N)(=O)c4ccccc4)CC[C@@H]23)C[C@@H](O)C[C@@H]1O", "note": "[MK-24(S)—S(O)(NH)-Ph-1, (5Z,7E)-(1S,3R)-24-(S)-phenylsulfoximine-25-nor-9,10-seco-5,7,10(19)-cholestatriene-1,3-diol]", "values": [
      {"measurement": "CYP24 induction by 1,25-dihydroxyvitamin D3 in the presence of CYP24 inhibitor", "setting": "CYP24 [6]", "value": "markedly extended"},
      {"measurement": "enhancement of the anti-proliferative effects of 1,25-dihydroxyvitamin D3", "setting": "HEK cells", "value": "approximately 3 orders of magnitude"}
    ]},
    {"molecule": "C=C1/C(=C\\C=C2/CCC[C@]3(C)[C@@H]([C@H](C)CCCC(C)(C)O)CC[C@@H]23)C[C@@H](O)C[C@@H]1O", "note": "[1,25-(OH)2-D3, 1,25-dihydroxyvitamin D3]", "values": [
      {"measurement": "iPTH level", "setting": "[1]", "value": "restored to a level similar to control-fed animals"},
      {"measurement": "1,25-(OH)2-D3 levels (vitamin D hormone status)", "setting": "[2]", "value": "restored to the level of control-fed animals"},
      {"measurement": "induced expression of CYP24", "setting": "CYP24 [7]; parathyroid gland, uremic compared to normal animals, 0.5 mcg/kg i.v. daily for 7 days (FIG. 11)", "value": "significantly induced; also recorded: markedly greater"},
      {"measurement": "CYP24 gene expression", "setting": "CYP24 [7]; tissues from both normal and uremic rats, 0.5 mcg/kg i.v. daily", "value": "strongly induced"},
      {"measurement": "CYP24 expression", "setting": "CYP24 [7]; uremic rats, 0.5 mcg/kg i.v. daily for 7 days (FIG. 12)", "value": "drastically induces"},
      {"measurement": "serum 25-(OH)D3 levels", "setting": "[8]", "value": "reduction"},
      {"measurement": "PTH", "setting": "PTH", "value": "reduction"}
    ]},
    {"molecule": "B1", "values": [
      {"measurement": "CYP24 RNA production, effect with 1,25-dihydroxyvitamin D3", "setting": "CYP24 [9]", "value": "synergizes"}
    ]}
  ]
}
